Columns and labels:
male beagle dogs = conditions: intravenous, 5 mg/mL in 20% HPβCD, Dog1001 and Dog1002
Method: The mixture was vortexed then stirred at room temperature for 93 minutes forming a clear yellow solution at a concentration of 5 mg/mL for intravenous dosing. The intravenous dose solution was sterile-filtered using a Millex GV PVDF 0.22 μm filter (Millipore) prior to dosing.
Using clean technique, an aliquot of the 5 mg/mL Group 1 formulation (2.8 mL) was combined with 20% HPβCD (4.2 mL), and vortexed to form a clear yellow solution at a concentration of 2 mg/mL for intravenous dosing.
A total of fifteen male beagle dogs (plus one spare animal) were selected from the Test Facility's colony of non-naïve animals. The animals were assigned to the study based on acceptable health as determined by a Test Facility veterinarian following a pre-study health status check. The pre-study health status check included a physical exam, serum chemistry and hematology evaluations. The animals were placed into five groups of three animals per group. All animals were fasted overnight prior to dose administration.
Each animal in Group 1 received the prepared test article as a 30-60 second intravenous injection by way of a temporary percutaneous catheter placed in a peripheral vein. Immediately after each intravenous dose, the catheter was flushed with 3 mL of saline prior to removal. […]

[1] = Microcentrifuge dissolution test, second round of SDD testing; type: physicochemical; conditions: 400 μgA/mL in 0.5 wt % SIF in PBS, pH 6.5, 37° C.
Method: In the second round of testing, experiments were carried out using crystalline API (active pharmaceutical ingredient; MDA7), 10% MDA7 in HPMCAS-M SDD, 25% MDA7 in HPMCAS-M SDD, 25% MDA7 in HPMCAS-L SDD, and 25% MDA7:PVP VA64 SDD. The test conditions were 400 μgA/mL in 0.5 wt % SIF in PBS, pH 6.5, 37° C.

[2] = MDA7 GB/IB non-sink microcentrifuge dissolution test; type: physicochemical
Method: In the first round of testing, experiments were carried out using crystalline API, 25% MDA7: HPMCAS-H, 25% MDA7: Eudragit L100, 25/65/10%:HPMCAS-M:TPGS, 25/65/10% MDA7:PVP VA64:TPGS, and 40% MDA7: HPMCAS-M. The results of these experiments are shown in FIG. 1, and Table 1 below.

mice = conditions: cited from earlier work

Row | Compound | clinical effects observed following dosing (male beagle dogs) | AUC90 [1] | C90 [1] [µg/mL] | C1200 [1] [µg/mL] | Cmax90 [1] [ng/mL] | Ultra90 [1] [µg/mL] | Ultra1200 [1] [µg/mL] | AUC90 [2] | C90 [2] [µg/mL] | C1200 [2] [µg/mL] | Cmax90 [2] [ng/mL] | Ultra90 [2] [µg/mL] | Ultra1200 [2] [µg/mL] | effect on food intake (mice)
1 | CC1(Cc2ccccc2)COc2cc(C(=O)N3CCCCC3)ccc21 (centres unmarked) [Crystalline API, 3-benzyl-3-methyl-2,3-dihydrobenzofuran-6-carboxylic acid-piperidine amide] | adverse clinical effects | 2,010 min*μg/mL | 24 | 28 | 27000 | 20 | 24 | 2,360 min*μg/mL | 31 | 31 | 31000 | 31 | 31 | –
2 | Cc1c(C(=O)NN2CCCCC2)nn(-c2ccc(Cl)cc2Cl)c1-c1ccc(Cl)cc1 [SR141716A] | – | – | – | – | – | – | – | – | – | – | – | – | – | reduces food intake

Reference: patent US10526318B2, “Oral cannabinoid receptor modulator formulations” (THE CLEVELAND CLINIC FOUNDATION, priority 2018, dated 2020)
